In patent US20130165368A1, “ANTIMICROBIAL COMPOUNDS” (priority 2010, published 2013):
Converted amounts (≈) assume the structure as drawn. Where two headings read alike, the source gives them in different places.

Key:
Assay type in all cases: cell-based
[1] = test system: Staphylococcus epidermidis; assay: MIC agar dilution, micro-organism 14 (11047); conditions: Staphylococcus epidermidis 11047, read-out: MIC
How it was run: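 Agar dilution in Isosensitest/CCEY agar with egg yolk and lysed horse blood; compounds as aqueous emulsions (myristyl and lauryl alcohol with 1-methyl-2-pyrrolidone and Tween 20). 1 µL spots of 1/15-diluted 0.5 McFarland suspensions, 37 °C aerobic, read at 22 and 48 h; MIC (mmol/L) is lowest concentration giving <10 colonies.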

[2] = test system: Enterococcus faecalis (VRE) MB 1969; assay: MIC agar dilution, VRE strain 27
Method: (§1) Molar equivalent concentrations were used to allow comparison between compounds of differing molecular mass. Due to weighing difficulties, any compound in solid form was melted in a water bath prior to dilution. To make ten-times strength concentrations, which takes into account agar dilution, 0.0352 mmol of each compound was weighed into plastic universal bottles and 4 mL of sterile distilled water (SDW) was added. To produce a homogenous emulsion the universals were vortexed; once achieved the emulsions were serial diluted by adding 2 mL to 2 mL of SDW.
(§2) For every 100 mL of Isosensitest agar (IST) (CM0471; Oxoid, Basingstoke, England), 3.1 g of the IST powder was added to 100 mL SDW (as per manufacturer's instructions) and sterilised for 15 minutes at 121° C. Once sterilised, the molten agar was cooled to 50° C. in a water-bath. Subsequently 4.8 g of CCEY powder (BC2160; Bioconnections, Wetherby, England), also known as Brazier's medium, was added to 100 mL SDW for every 100 mL of agar needed. This was then sterilised for 15 minutes at 121° C. Once sterilised the molten agar was cooled to 50° C. in a water-bath and 4 mL of egg-yolk emulsion (S2073; TCS Biosciences Ltd, Buckingham, United Kingdom) and 1 mL of lysed defibrinated horse blood (HB035; TCS Biosciences Ltd, Buckingham, United Kingdom) were also added for every 100 mL needed. Horse blood lysis is achieved by dilution to half concentration with SDW; when fully lysed the mixture will turn dark red in colour.
(§3) 18 mL agar was added to each universal and then poured into sterile Petri dishes. This step creates a 1/10 dilution resulting in agar plates of the required strength. Control plates for each set of strains were created by adding 18 mL of agar to 2 mL of SDW.
(§4) Suspensions of each bacterial species were prepared with a density equal to that of a 0.5 McFarland standard using a densitometer. All suspensions were made using sterile distilled water and fresh 18-20 hour cultures. As a 0.5 McFarland standard contains 1.5×10^8 CFU/mL and the multipoint inoculators applies 1 μL spots of liquid, each bacterial suspension was diluted 1/15 (20 μL suspension to 280 μL sterile distilled water).
(§5) Bacterial suspensions were prepared from fresh 18-24 hour cultures as previously described. 1 μL of each strain was inoculated onto all 100 agar plates containing a different chemical concentration and the 2 control plates. This was done using a multipoint inoculator which inoculates 20 strains per plate. All plates were incubated for 22 hours at 37° C. in aerobic conditions.
(§6) Each plate was examined for bacterial growth after 22 and 48 hours, with each being incubated in between examinations. A positive result was recorded as growth of ≧10 colonies. A negative result was recorded as growth of <10 colonies as this is equivalent to 99.9% inhibition. The lowest concentration of chemical that inhibited growth was recorded as the MIC. The results are recorded in Table IV below, where the numbers are quoted in mmol/L.
(§7) Given the positive performance of the ethoxylates of lauryl alcohol in reducing the MIC for a number of the micro-organisms tested, further MIC testing of Laureth-1 [C12E1] through to Laureth-8 [C12E8] was conducted on each of the following: • 10 strains of vancomycin-resistant enterococci (VRE)—listed in Table V below; and • 20 strains of methicillin-resistant Staphylococcus aureus (MRSA)—listed in Table VI.
(§8) The alkanol, alkanol derivatives, agar plates, and inocula were all prepared in the same way as described above.
(§9) The plates were examined in the same manner as described above and the results are recorded in Table VII below, where the numbers are quoted in mmol/L.

[3] = test system: Enterococcus faecalis (VRE) MB 726; assay: MIC agar dilution, VRE strain 28
Method: as §1, §2, §3, §4, §5, §6, §7, §8, §9

[4] = test system: MRSA BEL 97597; assay: MIC agar dilution, MRSA strain 33; conditions: Staphylococcus aureus
Method: as §1, §2, §3, §4, §5, §6, §7, §8, §9

[5] = test system: MRSA BEL 97598; assay: MIC agar dilution, MRSA strain 34; conditions: Staphylococcus aureus
Method: as §1, §2, §3, §4, §5, §6, §7, §8, §9

[6] = test system: MRSA GER 1966/97 (Hanover IIIc); assay: MIC agar dilution, MRSA strain 36; conditions: Staphylococcus aureus
Method: as §1, §2, §3, §4, §5, §6, §7, §8, §9

[7] = test system: MRSA FRA 95035; assay: MIC agar dilution, MRSA strain 37; conditions: Staphylococcus aureus
Method: as §1, §2, §3, §4, §5, §6, §7, §8, §9

[8] = test system: MRSA EMRSA 15 19972/98; assay: MIC agar dilution, MRSA strain 39; conditions: Staphylococcus aureus
Method: as §1, §2, §3, §4, §5, §6, §7, §8, §9

[9] = test system: MRSA EMRSA 15 21698/98; assay: MIC agar dilution, MRSA strain 41; conditions: Staphylococcus aureus
Method: as §1, §2, §3, §4, §5, §6, §7, §8, §9

[10] = test system: MRSA EMRSA 15 1758/98; assay: MIC agar dilution, MRSA strain 43; conditions: Staphylococcus aureus
Method: as §1, §2, §3, §4, §5, §6, §7, §8, §9

[11] = test system: MRSA EMRSA 16 21354/95; assay: MIC agar dilution, MRSA strain 44; conditions: Staphylococcus aureus
Method: as §1, §2, §3, §4, §5, §6, §7, §8, §9

[12] = test system: MRSA EMRSA 16 00036/95; assay: MIC agar dilution, MRSA strain 46; conditions: Staphylococcus aureus
Method: as §1, §2, §3, §4, §5, §6, §7, §8, §9

[13] = test system: MRSA EMRSA 16 18200/95; assay: MIC agar dilution, MRSA strain 48; conditions: Staphylococcus aureus
Method: as §1, §2, §3, §4, §5, §6, §7, §8, §9

SMILES | MIC ([1]; 22 hrs) [µM] | MIC ([1]; 48 hrs) [µM] | MIC ([2]; 22 hrs) [µM] | MIC ([2]; 48 hrs) [µM] | MIC ([3]; 22 hrs) [µM] | MIC ([3]; 48 hrs) [µM] | MIC ([4]; 22 hrs) [µM] | MIC ([4]; 48 hrs) [µM] | MIC ([5]; 22 hrs) [µM] | MIC ([5]; 48 hrs) [µM] | MIC ([6]; 22 hrs) [µM] | MIC ([6]; 48 hrs) [µM] | MIC ([7]; 22 hrs) [µM] | MIC ([7]; 48 hrs) [µM] | MIC ([8]; 22 hrs) [µM] | MIC ([8]; 48 hrs) [µM] | MIC ([9]; 22 hrs) [µM] | MIC ([9]; 48 hrs) [µM] | MIC ([10]; 22 hrs) [µM] | MIC ([10]; 48 hrs) [µM] | also measured
CCCCCCCCCCCCOCCOCCO [L2, Diethylene Glycol Monododecyl Ether] | 110 (≈ 30.2 µg/mL) | 110 (≈ 30.2 µg/mL) | 220 (≈ 60.4 µg/mL) | 220 (≈ 60.4 µg/mL) | 220 (≈ 60.4 µg/mL) | 220 (≈ 60.4 µg/mL) | 110 (≈ 30.2 µg/mL) | 110 (≈ 30.2 µg/mL) | 110 (≈ 30.2 µg/mL) | 220 (≈ 60.4 µg/mL) | 110 (≈ 30.2 µg/mL) | 110 (≈ 30.2 µg/mL) | 220 (≈ 60.4 µg/mL) | 220 (≈ 60.4 µg/mL) | 110 (≈ 30.2 µg/mL) | 110 (≈ 30.2 µg/mL) | 110 (≈ 30.2 µg/mL) | 110 (≈ 30.2 µg/mL) | 110 (≈ 30.2 µg/mL) | 110 (≈ 30.2 µg/mL) | MIC ([11]; 22 hrs): 110 µM (≈ 30.2 µg/mL); MIC ([11]; 48 hrs): 110 µM (≈ 30.2 µg/mL); MIC ([12]; 22 hrs): 110 µM (≈ 30.2 µg/mL); MIC ([12]; 48 hrs): 110 µM (≈ 30.2 µg/mL); MIC ([13]; 22 hrs): 110 µM (≈ 30.2 µg/mL); MIC ([13]; 48 hrs): 110 µM (≈ 30.2 µg/mL)
CCCCCCCCCCCCOCCOCCOCCOCCO [L4, Tetraethylene Glycol Monododecyl Ether] | 110 (≈ 39.9 µg/mL) | 110 (≈ 39.9 µg/mL) | 220 (≈ 79.8 µg/mL) | 220 (≈ 79.8 µg/mL) | 220 (≈ 79.8 µg/mL) | 220 (≈ 79.8 µg/mL) | 55 (≈ 19.9 µg/mL) | 55 (≈ 19.9 µg/mL) | 110 (≈ 39.9 µg/mL) | 110 (≈ 39.9 µg/mL) | 55 (≈ 19.9 µg/mL) | 55 (≈ 19.9 µg/mL) | 55 (≈ 19.9 µg/mL) | 55 (≈ 19.9 µg/mL) | 55 (≈ 19.9 µg/mL) | 55 (≈ 19.9 µg/mL) | 55 (≈ 19.9 µg/mL) | 55 (≈ 19.9 µg/mL) | 55 (≈ 19.9 µg/mL) | 55 (≈ 19.9 µg/mL) | MIC ([11]; 22 hrs): 55 µM (≈ 19.9 µg/mL); MIC ([11]; 48 hrs): 55 µM (≈ 19.9 µg/mL); MIC ([12]; 22 hrs): 55 µM (≈ 19.9 µg/mL); MIC ([12]; 48 hrs): 55 µM (≈ 19.9 µg/mL); MIC ([13]; 22 hrs): 55 µM (≈ 19.9 µg/mL); MIC ([13]; 48 hrs): 55 µM (≈ 19.9 µg/mL)
CCCCCCCCCCCCOCCOCCOCCOCCOCCO [L5, Pentaethylene Glycol Monododecyl Ether] | 110 (≈ 44.7 µg/mL) | 110 (≈ 44.7 µg/mL) | 220 (≈ 89.5 µg/mL) | 220 (≈ 89.5 µg/mL) | 220 (≈ 89.5 µg/mL) | 220 (≈ 89.5 µg/mL) | 110 (≈ 44.7 µg/mL) | 110 (≈ 44.7 µg/mL) | 110 (≈ 44.7 µg/mL) | 110 (≈ 44.7 µg/mL) | 110 (≈ 44.7 µg/mL) | 110 (≈ 44.7 µg/mL) | 110 (≈ 44.7 µg/mL) | 110 (≈ 44.7 µg/mL) | 110 (≈ 44.7 µg/mL) | 110 (≈ 44.7 µg/mL) | 110 (≈ 44.7 µg/mL) | 110 (≈ 44.7 µg/mL) | 110 (≈ 44.7 µg/mL) | 110 (≈ 44.7 µg/mL) | MIC ([11]; 22 hrs): 110 µM (≈ 44.7 µg/mL); MIC ([11]; 48 hrs): 110 µM (≈ 44.7 µg/mL); MIC ([12]; 22 hrs): 110 µM (≈ 44.7 µg/mL); MIC ([12]; 48 hrs): 110 µM (≈ 44.7 µg/mL); MIC ([13]; 22 hrs): 110 µM (≈ 44.7 µg/mL); MIC ([13]; 48 hrs): 110 µM (≈ 44.7 µg/mL)
CCCCCCCCCCCCOCCOCCOCCOCCOCCOCCOCCO [L7, Heptaethylene Glycol Monododecyl Ether] | 110 (≈ 54.4 µg/mL) | 110 (≈ 54.4 µg/mL) | > 880 | > 880 | > 880 | > 880 | 220 (≈ 109 µg/mL) | 220 (≈ 109 µg/mL) | > 440 | > 440 | 110 (≈ 54.4 µg/mL) | 110 (≈ 54.4 µg/mL) | > 440 | > 440 | > 440 | > 440 | 440 (≈ 218 µg/mL) | > 440 | 220 (≈ 109 µg/mL) | 220 (≈ 109 µg/mL) | MIC ([11]; 22 hrs): > 440 µM; MIC ([11]; 48 hrs): > 440 µM; MIC ([12]; 22 hrs): 440 µM (≈ 218 µg/mL); MIC ([12]; 48 hrs): > 440 µM; MIC ([13]; 22 hrs): 220 µM (≈ 109 µg/mL); MIC ([13]; 48 hrs): > 440 µM
